{"source": "patent US8722665B2", "about": "“Cinnamido-pyrrolo[2,1-C][1,4]benzodiazepines as potential anticancer agents and process for the preparation thereof” (Council of Scientific & Industrial Research, priority 2008, dated 2014)", "test_in_all_cases": "In vitro cytotoxicity (SRB)", "format_in_all_cases": "cell-based, human", "key": {"OVCAR-5": {"test_system": "OVCAR-5", "conditions": "OVCAR-5 (Ovarian); 48 h continuous drug exposure", "method": "(§1) The compounds were evaluated for in vitro anticancer activity against sixty human tumour cells derived from nine cancer types (leukemia, non-small-cell lung, colon, CNS, melanoma, ovarian, prostate, and breast cancer) as shown in Table 1a. For each compound, dose response curves for each cell line were measured at a minimum of five concentrations at 10 fold dilutions. A protocol of 48 h continuous drug exposure was used and a sulforhodamine B (SRB) protein assay was used to estimate cell viability or growth. The concentration causing 50% cell growth inhibition (GI50), total cell growth inhibition (TGI 0% growth) and 50% cell death (LC50, −50% growth) compared with the control was calculated. The Log10 GI50 (concentration in mol/L causing 50% growth inhibition) values for Cinnamido-pyrrolo[2,1-c][1,4]benzodiazepine (8b) is listed in Table 2."}, "SR": {"test_system": "SR", "conditions": "SR (Leukemia); 48 h continuous drug exposure", "method": "as §1"}, "TK-10": {"test_system": "TK-10", "conditions": "TK-10 (Renal); 48 h continuous drug exposure", "method": "as §1"}, "BT-549": {"test_system": "BT-549", "conditions": "BT-549 (Breast); 48 h continuous drug exposure", "method": "as §1"}, "LOX IMVI": {"test_system": "LOX IMVI", "conditions": "LOX IMVI (Melanoma); 48 h continuous drug exposure", "method": "as §1"}, "OVCAR-8": {"test_system": "OVCAR-8", "conditions": "OVCAR-8 (Ovarian); 48 h continuous drug exposure", "method": "as §1"}, "HCC-2998": {"test_system": "HCC-2998", "conditions": "HCC-2998 (Colon); 48 h continuous drug exposure", "method": "as §1"}}}
{"smiles": "COc1cc(/C=C/C(=O)N2CCN(C(=O)c3cc(OC)c(OC)c(OC)c3)CC2)ccc1OCCCOc1cc2c(cc1OC)C(=O)N1CCC[C@H]1C=N2", "note": "[8b, 7-methoxy-8-{3-(2-methoxy-4-(E)-3-oxo-3-[4-(3,4,5-trimethoxybenzoyl)piperazino]-1-propenylphenoxy)propoxy}-(11aS)-2,3,5,11^a-tetrahydro-5H-pyrrolo[2,1-c][1,4]benzo-diazepine-5-one]", "values": [{"measurement": "GI50", "setting": "OVCAR-5", "value": 290, "unit": "nM"}, {"measurement": "GI50", "setting": "SR", "value": 20, "unit": "nM"}, {"measurement": "GI50", "setting": "TK-10", "value": 690, "unit": "nM"}, {"measurement": "GI50", "setting": "BT-549", "value": 130, "unit": "nM"}, {"measurement": "GI50", "setting": "LOX IMVI", "value": 180, "unit": "nM"}, {"measurement": "GI50", "setting": "OVCAR-8", "value": 260, "unit": "nM"}, {"measurement": "GI50", "setting": "HCC-2998", "value": 360, "unit": "nM"}]}
